One data set has as its target T1, hPR-B (Homo sapiens, UniProt P06401).
T1 construct: expressed in transfected cells
T1 sequence (P06401 1-933): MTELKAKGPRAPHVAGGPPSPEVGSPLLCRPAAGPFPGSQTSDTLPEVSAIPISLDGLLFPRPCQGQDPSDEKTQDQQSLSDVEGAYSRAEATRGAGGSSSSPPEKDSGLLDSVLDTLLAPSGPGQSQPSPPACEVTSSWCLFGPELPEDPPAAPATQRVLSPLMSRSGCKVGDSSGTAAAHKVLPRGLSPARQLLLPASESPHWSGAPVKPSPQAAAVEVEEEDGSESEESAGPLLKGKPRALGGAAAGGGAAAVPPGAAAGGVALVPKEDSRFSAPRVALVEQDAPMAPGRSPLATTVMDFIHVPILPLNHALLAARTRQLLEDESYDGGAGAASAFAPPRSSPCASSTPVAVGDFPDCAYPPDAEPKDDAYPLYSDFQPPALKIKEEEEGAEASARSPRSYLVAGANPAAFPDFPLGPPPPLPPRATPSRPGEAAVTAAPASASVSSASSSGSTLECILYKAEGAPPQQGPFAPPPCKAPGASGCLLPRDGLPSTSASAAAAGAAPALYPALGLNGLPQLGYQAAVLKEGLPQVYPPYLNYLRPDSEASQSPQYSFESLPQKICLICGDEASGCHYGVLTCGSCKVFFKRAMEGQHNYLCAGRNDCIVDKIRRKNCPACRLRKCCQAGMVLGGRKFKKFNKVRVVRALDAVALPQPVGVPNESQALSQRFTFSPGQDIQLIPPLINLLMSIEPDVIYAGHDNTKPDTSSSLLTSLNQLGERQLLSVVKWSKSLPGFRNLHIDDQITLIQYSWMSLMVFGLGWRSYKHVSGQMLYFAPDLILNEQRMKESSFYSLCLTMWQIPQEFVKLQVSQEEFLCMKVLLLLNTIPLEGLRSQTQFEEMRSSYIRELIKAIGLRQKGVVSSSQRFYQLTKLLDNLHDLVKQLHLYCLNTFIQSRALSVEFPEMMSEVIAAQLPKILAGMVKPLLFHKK
As to the kind of experiment: Co-transfection assay, other nuclear receptors: hPR-B. The data set is classed as cell-based. The text has this:
An exemplary co-transfection assay is the luciferase reporter assay (Evans, Science 240: 889-895 (1988), Berger et al., J Steroid Biochem Mol Biol 41: 733-738 (1992)) can be used to establish the ability of a compound of formulae I, II or III to activate (agonist activity) or repress (antagonist activity) the ability of the human androgen receptor (hAR) to induce gene expression. A human cell line containing endogenously expressed hAR (e.g., MDA-MB-453 cells, derived from a human mammary carcinoma, American Tissue Type Culture Collection [ATCC] HTB 131) can be transfected with an androgen responsive luciferase reporter plasmid to measure the level of cross-reactivity of the compound on other nuclear receptors (such as the glucocorticoid receptor (GR), estrogen receptor (ER), mineralocorticoid receptor (MR), progesterone receptor (PR), retinoid receptor (RAR), retinoid X receptor (RXR), peroxisome proliferator activating receptors alpha (PPARα), gamma (PPARγ) and delta (PPARδ), liver X receptor (LXR), farnesyl X receptor (FXR) and the pregnane X receptor (PXR)). In the assay, luciferase reporter plasmids containing the cDNA for firefly luciferase (LUC) under the control of a conditional promoter containing hormone response elements recognized by the appropriate nuclear receptor are co-transfected into cells with the nuclear receptor expression plasmid. […]

Data set [1] in a line: Oral bioavailability in animal species. As to conditions: multiple animal species, including monkeys.

Results on one compound are retold here after patent US11358931B2, “Selective androgen receptor modulators (SARMs) and uses thereof” (priority 2007, dated 2022).

The term IC50 denotes the point on the concentration scale where inhibition reaches its midpoint. Read a low IC50 as higher potency. In turn, `N#Cc1ccc(N2CCC[C@@H]2[C@@H](O)C(F)(F)F)cc1C(F)(F)F` [Compound 102, R,R-4-(2-(1-Hydroxyl-2,2,2-trifluoroethyl)-pyrrolidinyl)-2-trifluoromethyl-benzonitrile] showed an IC50 against hPR-B of 0.28 µM. The “antagonism of progesterone-induced activation of hPR-B (efficacy)” value at hPR-B (progesterone-induced activation) is listed as 74%. The oral bioavailability entry in data set [1] is reported as “orally bioavailable”.
